Entries after “also recorded” stand apart in the source; their conditions may differ.
What was measured:
[1] = system: TH+ dopamine neurons of E15 rat ventral mesencephalic cultures; details: 10 μM; 18 h serum-free
Excerpt: To make this determination, select rat embryonic mesencephalic cultures were double stained for both the TH dopaminergic cell marker and for nuclear characteristics indicative of apoptosis. […] Following 18 hrs under these conditions, cultures were immunostained using anti-rat TH primary antibody followed by a fluorescent (FITC-conjugated) secondary antibody. Subsequently, cells were stained with a fluorescent Hoechst 33258 DNA dye. Only those cells containing nuclear chromatin condensations (pyknotic nuclei) were scored as apoptotic. Cells containing intact nuclei -were counted as healthy. In the entire experiment, a total of 5066 TH-immunoreactive neurons were examined for nuclear chromatin condensation. Four sample groups were tested:
In this Example, experiments to study tyrosine hydroxylase-positive apoptotic cells were conducted. E15 rat ventral mesencephalic cultures were grown in F12 medium containing 5% human placental serum for 24 hrs. […] Next, cultures were washed with PBS and fixed for 2 min in 1% paraformaldehyde followed by further fixation in 70% ethanol in glycine buffer at -20° C. for 10 min. […] Cells containing intact nuclei were counted as healthy. […] In the entire experiment, total of 5066 TH-immunoreactive neurons were examined for the nuclear chromatin condensation under a fluorescence microscope.

[2] = system: transplanted embryonic rat ventral mesencephalic dopamine neurons; details: tissue preincubated 2 h with 10 μM; six weeks after transplantation
Description: Following the incubation, the tissue was immediately transplanted into the denervated rat striatum. Six weeks after transplantation, TH+ cells within the striatum were visualized following sacrifice of the animals, and cryotome sectioning and immunostaining for tyrosine hydroxylase (TH) using a polyclonal anti-rat TH primary antibody.
For the transplantation, one-half embryonic day 15 (E15) rat ventral mesencephalon was extruded into a strand using a 0.2 mm in diameter glass cannula made by heating a glass luer adaptor (Kimble-Kontes, Cat# 663500-0444). […] Following incubation, the tissue was immediately transplanted into the denervated rat striatum. The tissue strand was drawn up into a 24 g sterile stainless steel cannula attached to a microliter syringe and stereotaxically transplanted at the following coordinates (AP 0.0 mm form bregma, LAT3.0 mm form the midline, VD-3.5 to -7.5 mm below the dura) in 4.0 μl over 4 min.
Visualization of TH+ cells: Six weeks after transplantation, all animals were sacrificed, and their brains perfused with heparinized-saline followed by 4% paraformaldehyde. […] All TH-immunoreactive neurons were counted in every third section under a microscope. Abercrombie's correction was used to estimate the total number of TH+ neurons surviving in each transplant.

[3] = system: TH+ dopamine neurons of E15 rat mesencephalic primary cultures; format: cell-based; details: 20 h serum withdrawal

Structure (SMILES): C[S+]([O-])c1ccc(-c2nc(-c3ccc(F)cc3)c(-c3ccncc3)[nH]2)cc1 (stereo not shown) [SB 203580]
- anti-apoptotic effect in dopamine neurons after serum withdrawal [1]: significant (p<0.001), although less dramatic than that of PD169316; also recorded: significant (p<0.001) although less dramatic than that of PD169316
- number of surviving dopamine neurons (TH+ cells) compared to sham-pretreated transplants [2]: intermediate level

Structure (SMILES): Oc1ccc(-c2nc(-c3ccc(F)cc3)c(-c3ccncc3)[nH]2)cc1 [SB 202190]
- surviving TH+ neurons/cm^2 ([3]; 1 μM inhibitor, serum control […]±30, no serum 283±32): 537±37 TH+ neurons/cm^2
- concentration at which the survival effect on TH+ neurons reached its maximum ([3]; 0.1-10 μM tested): 1 µM
